This note sets out measurements from paper PMC11391413 (Chemical Science, 2024).

No end group written: not given here.

In the first test the target is NSH3 domain of full-length GRB2 (Homo sapiens, UniProt P62993). In words: NMR titration (1H-15N HSQC chemical shift perturbation) of 15N-labelled full-length GRB2 with SOS1 PRMs, KD1. To be noted: read-out: K D (μM) from full-length GRB2, K D1 (NSH3), global fit of residues with maximum CSPs over 0.03 ppm, independent two-site binding model, GRB2 approx. 200 to 270 μM, 20 mM sodium phosphate, 25 °C, bootstrap 1000 iterations.
Chain of NSH3 domain of full-length GRB2 (P62993 whole entry, the tested form may be a part): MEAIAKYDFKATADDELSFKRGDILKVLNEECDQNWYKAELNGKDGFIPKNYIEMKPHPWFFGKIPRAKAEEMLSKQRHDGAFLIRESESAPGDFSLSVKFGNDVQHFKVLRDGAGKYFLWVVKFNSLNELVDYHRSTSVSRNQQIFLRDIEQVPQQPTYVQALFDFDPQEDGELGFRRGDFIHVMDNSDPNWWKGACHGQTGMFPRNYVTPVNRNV
Procedure: Models with two binding sites basically require a total of four dissociation constants (KD1–KD4). The two-site independent binding model equates KD3 and KD4 with KD2 and KD1, respectively. In contrast, the two-site cooperative binding model (two-site dependent model) differentiates the four dissociation constants, with the assumption that KD3 is modulated by another ligand binding to KD2, as a function of KD2 and a modulation factor α. KD4 is then calculated from KD1 and KD2, as shown in the equation provided in the figure (the detailed models and theory are described in Materials and methods). […] The calculations were performed using only residues showing the maximum CSPs over 0.03 ppm.
2D ^1H–^15N HSQC spectra were measured at each titration point. Chemical shift differences, Δ, were analysed by Δ = ((ΔH)^2 + (ΔN/5)^2)^1/2, where ΔH and ΔN are the differences in ppm for the backbone amide ^1H and ^15N chemical shifts between the two conditions. 1 ppm corresponds to 600.13 Hz for ^1H and 60.81 Hz for ^15N.
The dissociation constants for each residue were calculated by non-linear regression analysis with the equation for the single state model:[33] […]
In all models, the non-linear least-squares fitting was performed by the Levenberg–Marquardt algorithm. The precision of the model parameters was assessed by conducting the bootstrap resampling on the residuals of the regression model. […]
Regarding `CC(C)C[C@H](NC(=O)[C@H](CCCCN)NC(=O)[C@@H]1CCCN1)C(=O)N1CCC[C@H]1C(=O)N1CCC[C@H]1C(=O)N[C@@H](CCCCN)C(=O)N[C@H](C(=O)N[C@@H](Cc1ccc(O)cc1)C(=O)N[C@@H](CCCCN)C(=O)N[C@@H](CCCNC(=N)N)C(=O)N[C@@H](CCC(=O)O)C(=O)N[C@@H](Cc1c[nH]cn1)C(=O)O)[C@@H](C)O` [S10], the Kd turned out to be 483 ± 45.7 µM.

The next test deals with T1, full-length GRB2, KD1 (NSH3) (Homo sapiens, UniProt P62993).
T1 construct: further corroborated by our ITC analysis of the full-length GRB2; His6 (N, cleaved yes); TEV protease cleavage site (N, cleaved yes); made in house; host or cells: Escherichia coli BL21 (DE3) pLysS
T1 sequence (P62993 whole entry): as the sequence (P62993 whole entry, the tested form may be a part) above
In words: ITC of full-length GRB2 with SOS1 PRMs, KD1. The class given is binding.
Details: not given
For the molecule PSPHGTRRHLPSPP [S8], the Kd worked out at 123 ± 18.6 µM. Same read-out and setting: then DSPPAIPPRQPT [S5], with 15.9 ± 1.5 µM. Same read-out and setting: next, IAGPPVPPRQST [S9]: 35.6 ± 4.2 µM.

Molecule ESPPLLPPREPV [S6] had a Kd of 40.1 ± 6.5 µM.

In the case of `CC(C)C[C@H](NC(=O)[C@H](CCCCN)NC(=O)[C@@H]1CCCN1)C(=O)N1CCC[C@H]1C(=O)N1CCC[C@H]1C(=O)N[C@@H](CCCCN)C(=O)N[C@H](C(=O)N[C@@H](Cc1ccc(O)cc1)C(=O)N[C@@H](CCCCN)C(=O)N[C@@H](CCCNC(=N)N)C(=O)N[C@@H](CCC(=O)O)C(=O)N[C@@H](Cc1c[nH]cn1)C(=O)O)[C@@H](C)O` [S10], the Kd came out at 71.5 ± 24.2 µM. Still for that read-out and setting: next, PKPLPRFPKK [S2]: 65.1 ± 23.7 µM.
